{"source": "paper PMC9042912", "about": "“T cell receptor and IL-2 signaling strength control memory CD8^+ T cell functional fitness via chromatin remodeling” (Nature Communications, 2022)", "key": {"H2-K^b": {"biological_target": "T1, H2-K^b (Mus musculus, UniProt P01901)", "T1 construct": "RMA-S cells were added per well to a 96-well flat-bottom plate and incubated at 30 °C overnight; endogenous in cells; host or cells: RMA-S cells (TAP-deficient), obtained from Dr. Steve Porcelli", "T1 sequence (P01901 22-369)": "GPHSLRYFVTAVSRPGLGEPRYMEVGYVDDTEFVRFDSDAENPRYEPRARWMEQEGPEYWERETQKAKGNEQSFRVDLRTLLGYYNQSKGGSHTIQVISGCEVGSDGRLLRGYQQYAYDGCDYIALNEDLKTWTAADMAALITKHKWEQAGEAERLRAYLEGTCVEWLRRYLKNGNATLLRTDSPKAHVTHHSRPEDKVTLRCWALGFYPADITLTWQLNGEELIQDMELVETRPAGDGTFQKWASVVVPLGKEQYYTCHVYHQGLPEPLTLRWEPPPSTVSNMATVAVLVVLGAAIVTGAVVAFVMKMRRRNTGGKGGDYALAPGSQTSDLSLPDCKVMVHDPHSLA", "T1 sequence (P01887 21-119 partner)": "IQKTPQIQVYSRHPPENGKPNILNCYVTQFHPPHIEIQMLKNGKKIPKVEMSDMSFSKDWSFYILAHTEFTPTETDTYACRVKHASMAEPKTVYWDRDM", "assay": "cell-based"}, "[1]": {"test_system": "OT-I, gBT-I, P14, L9.6 T cells", "conditions": "mouse"}, "H2-D^b": {"biological_target": "H2-D^b (Mus musculus, UniProt P01899)", "sequence (P01899 25-362, one chain of several)": "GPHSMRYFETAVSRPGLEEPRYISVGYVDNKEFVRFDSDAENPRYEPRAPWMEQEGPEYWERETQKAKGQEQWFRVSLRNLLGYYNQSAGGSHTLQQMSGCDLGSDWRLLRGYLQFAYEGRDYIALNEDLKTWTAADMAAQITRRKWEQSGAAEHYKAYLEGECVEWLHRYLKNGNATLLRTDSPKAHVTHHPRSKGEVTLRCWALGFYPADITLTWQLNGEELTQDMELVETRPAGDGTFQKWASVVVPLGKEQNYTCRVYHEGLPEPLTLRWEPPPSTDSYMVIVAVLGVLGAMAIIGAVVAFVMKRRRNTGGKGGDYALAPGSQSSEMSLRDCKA", "assay_type": "cell-based"}, "OT-I cells": {"test_system": "OT-I cells", "assay_type": "in vivo, mouse", "conditions": "for % Il2ra mut/mut among OT-I / % WT among OT-I: individual values"}}, "note": "Values joined by “and” are separate entries in the source; they are usually repeats but may differ in a detail not shown here. Identical values can stand only once. Like-named read-outs stand apart in the source and are kept apart here. No end group written: not given here.", "data": [{"molecule": "CC[C@H](C)[C@H](NC(=O)[C@@H](NC(=O)[C@@H](N)CO)[C@@H](C)CC)C(=O)N[C@@H](CC(N)=O)C(=O)N[C@@H](Cc1ccccc1)C(=O)N[C@@H](CCC(=O)O)C(=O)N[C@@H](CCCCN)C(=O)N[C@@H](CC(C)C)C(=O)O", "note": "[N4]", "values": [{"measurement": "Kd", "setting": "H2-K^b", "value": 111, "unit": "nM"}]}, {"molecule": "KAVYNFATC [GP33-41]", "values": [{"measurement": "duration for which the Lm-expressed epitope induces naïve T cell proliferation in vivo", "setting": "[1]", "value": "~ 2 days"}, {"measurement": "formation of stable complexes with D^b", "setting": "H2-D^b", "value": "form stable MHC class I complexes"}]}, {"molecule": "SIIQFEKL [Q4]", "values": [{"measurement": "Kd", "setting": "H2-K^b", "value": 65, "unit": "nM"}]}, {"molecule": "SIITFEKL [T4]", "values": [{"measurement": "Kd", "setting": "H2-K^b", "value": 59, "unit": "nM"}]}, {"molecule": "SSIEFARL [gB498-505]", "values": [{"measurement": "Kd", "setting": "H2-K^b", "value": 32, "unit": "nM"}]}, {"molecule": "diphtheria toxin [DT]", "values": [{"measurement": "decrease of primary OT-I cell expansion", "setting": "OT-I cells; CD11c+ cell depletion 2 days after Lm-Ova infection", "value": "~ 50%"}, {"measurement": "% Il2ra mut/mut among OT-I", "setting": "OT-I cells; Memory + DT", "value": "29.30% and 45.50% and 51.90% and 25.10% and 25.90% and 50.30% and 56.40%"}, {"measurement": "% WT among OT-I", "setting": "OT-I cells; Memory + DT", "value": "70.10% and 54.40% and 47.80% and 74.30% and 73.60% and 49.50% and 43.40%"}, {"measurement": "% Il2ra mut/mut among OT-I", "setting": "OT-I cells; Primary + DT", "value": "4.26% and 7.74% and 13.10% and 8.93% and 11.40% and 29.60% and 21.10% and 24.20% and 24.80% and 4.23%"}, {"measurement": "% WT among OT-I", "setting": "OT-I cells; Primary + DT", "value": "91.80% and 86.30% and 90.50% and 87.80% and 89.00% and 69.30% and 77.20% and 73.40% and 64.60% and 95.20% and 95.30%"}, {"measurement": "% OT-I", "setting": "OT-I cells; depletion of CD11c+ cells in CD11c-DTR mice, compared with control group, each value one mouse (Suppl. Fig. 4B)", "value": "4.98% and 8.05% and 8.87% and 13.60%"}]}]}
